Series [1] deals with T1, Segment polarity protein dishevelled homolog DVL-2 (Homo sapiens, UniProt O14641).
T1 sequence (O14641 whole entry): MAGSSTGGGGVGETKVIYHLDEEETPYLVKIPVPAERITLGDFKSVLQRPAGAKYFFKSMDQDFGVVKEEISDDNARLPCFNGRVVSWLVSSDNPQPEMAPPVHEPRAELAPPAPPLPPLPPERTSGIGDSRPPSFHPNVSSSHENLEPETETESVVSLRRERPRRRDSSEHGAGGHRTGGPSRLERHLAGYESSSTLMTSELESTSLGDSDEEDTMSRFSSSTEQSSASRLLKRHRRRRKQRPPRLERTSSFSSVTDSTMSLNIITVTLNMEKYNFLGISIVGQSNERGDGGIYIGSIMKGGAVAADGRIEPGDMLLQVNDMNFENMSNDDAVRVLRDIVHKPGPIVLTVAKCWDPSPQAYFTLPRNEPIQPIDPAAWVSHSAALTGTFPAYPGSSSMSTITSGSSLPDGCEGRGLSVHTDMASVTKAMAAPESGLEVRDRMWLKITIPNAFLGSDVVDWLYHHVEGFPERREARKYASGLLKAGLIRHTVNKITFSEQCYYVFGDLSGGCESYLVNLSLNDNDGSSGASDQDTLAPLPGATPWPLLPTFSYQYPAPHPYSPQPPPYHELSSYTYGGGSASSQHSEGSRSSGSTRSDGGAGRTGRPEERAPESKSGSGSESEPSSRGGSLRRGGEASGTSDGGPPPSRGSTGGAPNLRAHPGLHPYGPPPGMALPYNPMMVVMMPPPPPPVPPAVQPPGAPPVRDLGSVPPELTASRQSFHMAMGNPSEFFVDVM
As to the kind of experiment: (§1) Binding affinity at Dvl2 PDZ domain after 15 mins by fluorescence polarization assay.

Series [2] concerns the target T2, Segment polarity protein dishevelled homolog DVL-2 (Homo sapiens) (UniProt O14641).
T2 sequence (whole entry): T1 sequence (O14641 whole entry)
The description is as §1.

Series [3] can be described thus: Cytotoxicity in human HEK293S cells assessed as cell viability at 300 uM after 18 hrs by differential interference contrast microscopy. It is filed as cell-based.
Series [4] can be described thus: Cytotoxicity in human HEK293S cells assessed as cell viability at 100 uM after 18 hrs by differential interference contrast microscopy. It is filed as cell-based.
Series [5] can be described thus: Inhibition of Dvl mediated Wnt3a/TCF signaling in human HEK293S cells after 18 hrs by TOPglow reporter assay. On the technique in general: In a reporter assay the amount or activity of a reporter protein is the signal.
Series [6] in a line: Drug uptake in human HEK293S cells after 1 hr by time-lapse microscopy. It is filed as ADME, cell-based.
The target in series [7] is T3, Segment polarity protein dishevelled homolog DVL-1 (Homo sapiens) (UniProt O14640).
T3 sequence (whole entry): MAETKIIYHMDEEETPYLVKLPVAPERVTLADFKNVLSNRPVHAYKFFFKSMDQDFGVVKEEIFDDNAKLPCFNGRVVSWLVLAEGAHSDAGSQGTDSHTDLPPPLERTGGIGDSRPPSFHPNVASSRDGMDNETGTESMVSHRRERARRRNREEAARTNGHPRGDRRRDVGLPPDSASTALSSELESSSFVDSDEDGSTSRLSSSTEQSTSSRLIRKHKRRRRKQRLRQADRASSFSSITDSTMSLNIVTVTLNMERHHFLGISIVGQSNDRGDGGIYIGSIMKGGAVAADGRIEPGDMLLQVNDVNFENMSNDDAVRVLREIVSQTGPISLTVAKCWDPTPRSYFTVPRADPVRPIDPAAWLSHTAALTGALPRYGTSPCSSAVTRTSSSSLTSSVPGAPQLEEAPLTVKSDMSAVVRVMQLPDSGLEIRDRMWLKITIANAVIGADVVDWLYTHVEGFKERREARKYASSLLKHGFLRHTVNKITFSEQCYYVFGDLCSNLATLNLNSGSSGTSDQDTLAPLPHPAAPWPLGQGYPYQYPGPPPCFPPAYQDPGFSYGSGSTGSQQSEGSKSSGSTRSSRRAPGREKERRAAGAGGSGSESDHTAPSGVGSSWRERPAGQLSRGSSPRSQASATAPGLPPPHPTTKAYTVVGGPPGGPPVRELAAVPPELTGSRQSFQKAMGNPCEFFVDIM
The series can be described thus: Inhibition of Dvl1 overexpressed in human HEK293S assessed as inhibition of […]/TCF reporter signaling at 20 uM after 18 hrs by TOPglow reporter assay.

Series [8] concerns the target T4, Catenin beta-1 (Homo sapiens) (UniProt P35222).
T4 sequence (whole entry): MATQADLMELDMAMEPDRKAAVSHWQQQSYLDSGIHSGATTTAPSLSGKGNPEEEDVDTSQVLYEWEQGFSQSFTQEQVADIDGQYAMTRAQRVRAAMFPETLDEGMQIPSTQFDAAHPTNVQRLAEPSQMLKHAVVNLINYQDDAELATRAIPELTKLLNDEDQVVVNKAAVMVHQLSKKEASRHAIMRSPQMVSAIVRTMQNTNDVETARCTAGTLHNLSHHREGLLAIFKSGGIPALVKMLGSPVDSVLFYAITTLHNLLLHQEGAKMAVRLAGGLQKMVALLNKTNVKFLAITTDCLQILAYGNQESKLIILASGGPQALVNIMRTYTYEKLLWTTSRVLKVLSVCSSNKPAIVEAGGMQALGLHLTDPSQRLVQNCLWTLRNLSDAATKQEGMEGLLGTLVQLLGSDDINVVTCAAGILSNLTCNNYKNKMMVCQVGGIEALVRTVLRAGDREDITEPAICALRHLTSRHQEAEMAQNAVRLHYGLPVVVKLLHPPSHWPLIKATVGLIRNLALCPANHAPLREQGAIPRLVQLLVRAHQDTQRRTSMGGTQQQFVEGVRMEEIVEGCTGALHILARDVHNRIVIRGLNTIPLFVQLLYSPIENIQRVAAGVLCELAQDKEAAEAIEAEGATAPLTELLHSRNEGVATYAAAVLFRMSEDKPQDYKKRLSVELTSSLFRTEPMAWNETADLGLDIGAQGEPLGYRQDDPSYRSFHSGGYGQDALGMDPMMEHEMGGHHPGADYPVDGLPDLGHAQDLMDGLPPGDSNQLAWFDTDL
As to the kind of experiment: Inhibition of […] mediated […]/TCF reporter signaling in human HEK293S at 20 uM after 18 hrs by TOPglow reporter assay. It is filed as functional.

Series [9] addresses T5, Segment polarity protein dishevelled homolog DVL-3 (Homo sapiens) (UniProt Q92997).
T5 sequence (whole entry): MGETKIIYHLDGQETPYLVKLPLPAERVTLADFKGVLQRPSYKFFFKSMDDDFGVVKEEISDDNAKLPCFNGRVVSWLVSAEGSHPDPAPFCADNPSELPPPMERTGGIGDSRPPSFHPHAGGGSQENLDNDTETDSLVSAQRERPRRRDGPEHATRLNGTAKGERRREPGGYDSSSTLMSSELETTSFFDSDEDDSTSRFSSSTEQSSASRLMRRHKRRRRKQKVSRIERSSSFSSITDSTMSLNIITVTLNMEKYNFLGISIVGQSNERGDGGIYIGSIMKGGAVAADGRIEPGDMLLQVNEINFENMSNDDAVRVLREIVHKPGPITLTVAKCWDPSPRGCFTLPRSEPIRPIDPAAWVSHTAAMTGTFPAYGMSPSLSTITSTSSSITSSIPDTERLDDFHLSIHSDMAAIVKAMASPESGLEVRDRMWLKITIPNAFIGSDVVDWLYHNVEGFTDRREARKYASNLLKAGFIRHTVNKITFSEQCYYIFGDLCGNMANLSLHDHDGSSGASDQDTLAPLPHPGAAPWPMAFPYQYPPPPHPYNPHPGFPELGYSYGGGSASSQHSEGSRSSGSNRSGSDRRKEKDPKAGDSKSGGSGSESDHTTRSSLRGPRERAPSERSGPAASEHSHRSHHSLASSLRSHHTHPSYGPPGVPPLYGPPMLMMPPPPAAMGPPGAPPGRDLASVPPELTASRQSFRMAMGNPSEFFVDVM
The series can be described thus: Binding affinity at Dvl3 in human HEK293S lysate after 15 mins by pulldown and Western blot assays. In general terms: In western blotting, separated proteins are transferred to a membrane and probed.

The nature of series [10]: Cytotoxicity in human HEK293S cells assessed as cell viability at 33 uM after 18 hrs by differential interference contrast microscopy. Type of series: cell-based.
The target in series [11] is T2, Segment polarity protein dishevelled homolog DVL-2 (Homo sapiens). As to the kind of experiment: Inhibition of Dvl2 overexpressed in human HEK293S assessed as inhibition of […]/TCF reporter signaling at 20 uM after 18 hrs by TOPglow reporter assay.
Series [12] has as its system HEK293. The series can be described thus: Inhibition of Dvl mediated Wnt3a signaling in human HEK293 cells assessed as […] accumulation at 10 uM after 18 hrs by Western blot method. Type of series: cell-based.
Series [13] concerns HCT-15. As to the kind of experiment: Inhibition of Dvl mediated Wnt/TCF signaling in human HCT15 after 18 hrs by TOPglow reporter assay. It is filed as cell-based.
Series [14] concerns the target T5, Segment polarity protein dishevelled homolog DVL-3 (Homo sapiens). The series can be described thus: Inhibition of Dvl3 overexpressed in human HEK293S assessed as inhibition of […]/TCF reporter signaling at 20 uM after 18 hrs by TOPglow reporter assay.

A word on the pKi: it is −log10 of the Ki, conventionally taken in molar units. High values mean a low Ki, low ones a high Ki. The pIC50 is −log10 of the IC50, conventionally taken in molar units.

The structures appear in SMILES notation. pIC50, pKi: −log10 of the molar value. Active and inactive are the calls of the source. The calls are words filed in the database; no cut-off is given here. Where a SMILES comes first, the peptide text is derived from it. Where only a bound is given, the exact number is not on record here.

Turning to `CC[C@H](C)[C@H](NC(=O)[C@H](CC(=O)O)NC(=O)[C@H](CO)NC(=O)[C@H](Cc1c[nH]c2ccccc12)NC(=O)[C@H](CC(C)C)NC(=O)[C@@H](NC(=O)[C@@H](NC(=O)[C@H](CCC(=O)O)NC(=O)CN)[C@@H](C)CC)C(C)C)C(=O)O` (H-GEIVLWSDI-OH), the pKi in series [1] is 5.34.

In [1], `CC[C@H](C)[C@H](NC(=O)[C@H](Cc1c[nH]c2ccccc12)NC(=O)CNC(=O)[C@H](Cc1ccc(O)cc1)NC(=O)[C@H](CC(=O)O)NC(=O)[C@H](CCCCN)NC(=O)[C@@H](N)Cc1c[nH]c2ccccc12)C(=O)N[C@@H](CC(=O)O)C(=O)O` (H-WKDYGWID-OH) showed a pKi of 5.92.

As for `CC[C@H](C)[C@H](NC(=O)[C@H](Cc1c[nH]c2ccccc12)NC(=O)[C@@H](NC(=O)[C@H](CCC(=O)O)NC(=O)[C@H](CC(N)=O)NC(=O)CNC(=O)[C@@H](N)CO)C(C)C)C(=O)N[C@@H](CC(=O)O)C(=O)NCC(=O)N1CCC[C@H]1C(=O)O` (H-SGNEVWIDGP-OH), in series [2], the result was Active.

Regarding `CCCCC(O)c1[nH]c2cc(C)c(C(=O)O)cc2c1CCc1ccccc1` (configuration not stated), the Activity entry in series [3] and in [4] was “Toxic” throughout. The compound further showed a pIC50 in [5] of less than 4.00.

`CC[C@H](C)[C@H](NC(=O)[C@H](CCCCN)NC(=O)[C@@H](NC(=O)[C@H](CCC(N)=O)NC(=O)[C@H](CCCNC(=N)N)NC(C)=O)[C@@H](C)CC)C(=O)N[C@@H](Cc1c[nH]c2ccccc12)C(=O)N[C@@H](Cc1ccccc1)C(=O)N[C@@H](CCC(N)=O)C(=O)N[C@@H](CC(N)=O)C(=O)N[C@@H](CCCNC(=N)N)C(=O)N[C@@H](CCCNC(=N)N)C(=O)N[C@@H](CCSC)C(=O)N[C@@H](CCCCN)C(=O)N[C@@H](Cc1c[nH]c2ccccc12)C(=O)N[C@@H](CCCCN)C(=O)N[C@@H](CCCCN)C(=O)NCC(=O)NCC(=O)NCC(=O)N[C@@H](CCC(=O)O)C(=O)N[C@H](C(=O)N[C@H](C(=O)N[C@@H](CC(C)C)C(=O)N[C@@H](Cc1c[nH]c2ccccc12)C(=O)N[C@@H](CO)C(=O)N[C@@H](CC(=O)O)C(=O)N[C@H](C(=O)N1CCC[C@H]1C(N)=O)[C@@H](C)CC)C(C)C)[C@@H](C)CC`: the Drug uptake result in series [6] is given as “Active”. In addition, the inhibition result in series [7], in [11], in series [12] and in series [14] was “Active” throughout. Moreover, the inhibition result in series [8] and in [13] was “inactive” each time. For the same compound, in series [9], the result was Active. For the same compound, the Activity result in series [10] is listed as “Non-toxic”. The compound also showed a pIC50 in series [5] of 4.96.

In series [1], `NCCCC[C@H](NC(=O)[C@@H](N)Cc1c[nH]c2ccccc12)C(=O)N[C@@H](Cc1c[nH]c2ccccc12)C(=O)N[C@@H](Cc1ccc(O)cc1)C(=O)NCC(=O)N[C@@H](Cc1c[nH]c2ccccc12)C(=O)N[C@@H](Cc1ccccc1)C(=O)O` (H-WKWYGWF-OH) had a pKi of 6.15.

These data come from ChEMBL document CHEMBL1221224, “Inhibition of Wnt signaling by Dishevelled PDZ peptides” (Nat Chem Biol, 2009).
